Reference: patent US11981693B2, “Organogermanium compound” (ASAI Germanium Research Institute Co., Ltd., priority 2019, dated 2024)
Like-named read-outs stand apart in the source and are kept apart here.

Assays:
[1] = Solubility of the THGP octamer in purified water or methanol, with pH of the solution; type: physicochemical
Method: To 100 mg of the THGP octamer obtained in (1), the process of adding purified water or methanol in small portions and stirring for 30 minutes at room temperature was repeated, and the volume of the solution was measured when the THGP octamer was visually observed to as completely dissolved. The solubility of the THGP octamer (Solute Amount (g)/Total Mass (g)×100%) was calculated from the measured volume. Furthermore, the pH of the solution was measured when the THGP octamer was completely dissolved.

[2] = Dissolution rate: time to visually complete dissolution in purified water; type: physicochemical
Method: 100 mg of Ge-132 and 100 mg of the THGP octamer were added to 10 mL of purified water, respectively, and the mixtures were stirred at 300 rpm at room temperature, and then the time required to be visually observed as completely dissolved was measured.

[3] = cited from earlier work
[4] = conventional THGP polymers, stated as known property

1,7,9,15-tetra(2′-sodium carboxyethylgermanium)-3,5,11,13-tetra-[sodium propanato(2-)-C^3′,O′]-germanium-2,4,6,8,10,12,14,16,17,18,19,20-dodecaoxa-pentacyclo[8.1^1,5.1^7,11.1^9,13.1^3,15.]icosane [THGP octamer]
pH of the aqueous solution (in words) ([1]; dissolved in water): neutral | solubility in methanol (Solute Amount (g)/Total Mass (g)×100%) ([1]; methanol, room temperature): 1.4% | solubility in water (Solute Amount (g)/Total Mass (g)×100%) ([1]; purified water, room temperature, visually complete dissolution): 58.8% | solubility (mass (g) of solute in 100 g of saturated solution) in water ([1]; water, 20° C.): 58.8% | pH of the aqueous solution ([1]; when completely dissolved in water): around 7.5 | time required to completely dissolve ([2]; 100 mg in 10 mL purified water, 300 rpm, room temperature): approximately 10 seconds | dissolving time ([2]; water, 20° C., same conditions as Ge-132): approximately 10 seconds

poly-trans-[(2-carboxyethyl)germasesquioxane] [Ge-132]
time required for the crystals to completely dissolve ([2]; 100 mg in 10 mL purified water (1% aqueous solution), 300 rpm, room temperature): ≥ 30 min | time required for complete dissolution ([2]; 1% in water, 20° C.): ≥ 30 min | solubility in organic solvents, such as methanol [3, 4]: insoluble | solubility in water [3, 4]: approximately 1% | solubility (mass (g) of solute in 100 g of saturated solution) in water ([3]; water, 20° C., known comparator value): approximately 1%
